Here are results for two compounds from article PMC9814250, “Single step syntheses of (1S)-aryl-tetrahydroisoquinolines by norcoclaurine synthases” (Communications Chemistry, 2020).

Test [1] deals with T1, RnCOMT (Rattus norvegicus, UniProt P22734).
T1 construct: gene Comt; recombinant in E. coli BL21(DE3), used as lysate
T1 sequence (P22734 1-264): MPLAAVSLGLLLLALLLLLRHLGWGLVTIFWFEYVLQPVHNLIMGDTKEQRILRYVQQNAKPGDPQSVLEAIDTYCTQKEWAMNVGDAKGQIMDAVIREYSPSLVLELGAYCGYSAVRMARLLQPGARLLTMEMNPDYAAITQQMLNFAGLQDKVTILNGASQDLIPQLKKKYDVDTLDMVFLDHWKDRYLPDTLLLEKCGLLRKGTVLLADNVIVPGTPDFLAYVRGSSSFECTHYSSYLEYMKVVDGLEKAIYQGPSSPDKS
Kind of test: HPLC, O-methylation to C6-OMe product. The conditions noted are these: SAM generated in situ (EcMAT, EcMTAN), Mg2+, pH 7.5, 37 °C, 24 h; not enantioselective.

In test [2] the target is T2, MxSafC (Myxococcus xanthus, UniProt Q50859).
T2 construct: gene safC; recombinant in E. coli BL21(DE3), His-trap purified
Kind of test: HPLC, O-methylation to C6-OMe-7a. It is filed as biochemical. The conditions noted are these: SAM generated in situ (EcMAT, EcMTAN), Mg2+, pH 7.5, 37 °C, 24 h; selective for (S).

Test [3] deals with T1, RnCOMT. Kind of test: HPLC, O-methylation to C6/C7-OMe-7b. Conditions: SAM generated in situ (EcMAT, EcMTAN), Mg2+, pH 7.5, 37 °C, 24 h; not enantioselective.
In test [4] the target is T2, MxSafC. Kind of test: HPLC, O-methylation to C6-OMe-7b. It counts as biochemical. The conditions noted are these: SAM generated in situ (EcMAT, EcMTAN), Mg2+, pH 7.5, 37 °C, 24 h; selective for (S).

On to `Oc1cc2c(cc1O)[C@H](C1CCCCC1)NCC2` [5a, (S)-5a], for which, at RnCOMT [1], the “HPLC, O-methylation to C6-OMe product” value is on record as “using 5a as the substrate, gave remarkable regioselectivity”. In addition, the “HPLC, O-methylation to C6-OMe-7a” value on MxSafC [2] was “MxSafC was found to be selective towards both (S)-5a and (S)-5b”.

Turning to `Oc1cc2c(cc1O)[C@H](c1ccccc1)NCC2` [5b, (S)-5b], at RnCOMT [3], the “HPLC, O-methylation to C6/C7-OMe-7b” value was “C6:C7-OMe-7b was observed by ^1H-NMR when 5b was used as the substrate”. The “HPLC, O-methylation to C6-OMe-7b” value at MxSafC [4] was “MxSafC was found to be selective towards both (S)-5a and (S)-5b”.
